Data from PMC3336937 (2012).

Target: T1, KcsA (Streptomyces lividans, UniProt P0A334)
T1 sequence (P0A334 1-160): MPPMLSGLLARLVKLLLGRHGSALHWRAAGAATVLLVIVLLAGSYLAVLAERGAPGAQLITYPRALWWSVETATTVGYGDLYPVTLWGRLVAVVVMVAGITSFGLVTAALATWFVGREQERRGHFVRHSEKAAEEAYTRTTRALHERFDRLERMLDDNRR
Assay: Trp fluorescence quenching, purified reconstituted wild-type KcsA
Assay type: binding

In the case of `CCCCCCCCC(Br)C(Br)CCCCCCCC(=O)O` (stereo not shown) [BrSA, 9,10-dibromostearic acid], the “Trp fluorescence quenching, purified reconstituted wild-type KcsA; binding const” value is reported as 0.67 ± 0.04.
